# Source: US8816135B2, “Trisphenol compound” (Honshu Chemical Industry Co., Ltd., priority 2009, dated 2014)
# Legend:
# [1] = Measurement of glass transition temperature by differential scanning calorimeter; type: physicochemical; conditions: DSC, melted compound cooled and heated again, 10.0° C./min.
# Experimental: Each compound was heated to a temperature 20° C. higher than the melting point of the compound in crystal form using a differential scanning calorimeter, and the melted compound was cooled and then heated again to measure the glass transition point. The measurement conditions were 40° C. as the temperature at which to start measurement, the melting point+20° C. as the temperature at which to end measurement, and 10.0° C./min. as the rate of heating.
# [2] = Measurement of solubility in solvent (propyleneglycolmonomethylether acetate); conditions: 28° C., largest amount that dissolved completely, added in 1 g steps to 10 g of solvent
# Experimental: As for solubility, 10 g of propyleneglycolmonomethylether acetate was put in a container and 1 g of trisphenol compound was added while keeping the temperature at 28° C., and the mixture was agitated for 10 minutes to check for complete dissolution of the compound. […] The solubility (amount in grams per 100 g of solvent) was calculated from the largest amount of compound in grams that dissolved completely.
SMILES,Glass transition temperature [1] [°C],Solubility [2],melting point [°C]
"CC(C)(c1ccc(O)cc1)c1ccc(C(C)(c2ccc(O)cc2)c2ccc(O)cc2)cc1 [Comparative Example, 1-[α-methyl-α-(4-hydroxyphenyl)ethyl]-4-[α,α-bis(4-hydroxyphenyl)ethyl]benzene, reference compound]",96,,
"CC(c1ccc(O)cc1)(c1ccc(O)cc1)c1ccc(-c2ccc(O)cc2)cc1 [Example 1, 1-[4-(4-hydroxyphenyl)phenyl]-1,1-bis(4-hydroxyphenyl)ethane]",,40 g/100 g of propyleneglycolmonomethylether acetate,198
"Cc1cc(C(C)(c2ccc(-c3ccc(O)cc3)cc2)c2cc(C)c(O)c(C)c2)cc(C)c1O [Example 3, 1-[4-(4-hydroxyphenyl)phenyl]-1,1-bis(4-hydroxy-3,5-dimethylphenyl)ethane]",104,10 g/100 g of propyleneglycolmonomethylether acetate,231
